These results are taken from PMC11668526, “The satiety hormone cholecystokinin gates reproduction in fish by controlling gonadotropin secretion” (eLife, 2024).

One assay has as its system LH secretion. Kind of assay: Ex vivo LH secretion into perfused medium, ELISA. The note with it: GnRH pulse 300 μl of 30 μg/μl, n=5, paired t-test. The assay is classed as cell-based, zebrafish. The text has this: (§1) The calcium response observed in LH and FSH cells upon GnRH and CCK stimulation indicates a preferential stimulatory effect of the neuropeptides on each cell type. The effect of these neuropeptides on LH and FSH secretion was examined in order to determine the functional outcome of the stimulation. For that, we collected the medium perfused through our ex vivo system (Figure 3A and B) during our calcium imaging assays. The medium was subsequently used to measure LH and FSH secretion using a specific ELISA validated for zebrafish GTHs ([Hollander-Cohen et al., 2018]).
(§2) Adult fish were euthanized using ice-cold water and decapitated. […]
(§3) To measure hormone secretion in response to salmon GnRH analogue (D-Ala6,Pro9-Net)-mammalian GnRH (Bachem Inc, Torrance, CA) or zebrafish CCK [D-Y-[SO3H]-L-G-W-M-D-F, synthesized by GL Biochem] stimulation, the medium was collected through the chamber outlet during the entire imaging session (10 ml per session in total). […] Hormones were measured in the fractions before and after stimulation using ELISA developed for common carp, which was established in the Levavi-Sivan lab using recombinant carp gonadotropins produced in yeast, and had been previously shown to be suitable for zebrafish ([Whitlock et al., 2019]).
On the technique in general: ELISA stands for enzyme-linked immunosorbent assay.

The subject of assay [1] is three types of GnRH receptors that exist in fish. Also noted: method as in Zohar and Mylonas, 2001. To be noted: ref Zohar and Mylonas, 2001; cited from earlier work.
Assay [2] deals with FSH cells in pituitary cell culture. To be noted: ref Lin and Ge, 2009; cited from earlier work. The text has this:
GnRH has long been considered the common stimulator of gonadotropin secretion in vertebrates. However, accumulating evidence for GnRH-independent FSH secretion in several mammalian species has questioned the regulatory role of GnRH ([McCann et al., 2001]; [Padmanabhan et al., 1997]; [Culler and Negro-Vilar, 1987]; [Pau et al., 1991]).

Another assay has as its system FSH cells. As to the kind of experiment: Ex vivo calcium imaging (RCaMP2), FSH cells. The assay is classed as cell-based, zebrafish. To be noted: 78.74 µM. The protocol: (§4) Overall, whereas GnRH elicited a response in 95% of LH cells, only 56% of FSH cells responded to the treatment in the same fish (Figure 3E).
(§5) To functionally test the effect of CCK on gonadotroph activity, we applied the peptide (300 μl of 30 μg/ml CCK, 78.74 µM) to our ex vivo preparation and monitored the calcium response of the cells. […] The calcium response in FSH cells was highly synchronized (mean max cross-correlation coefficient, 0.7 ± 0.04; Figure 4B; Figure 4—figure supplement 1B). By contrast, the response of LH cells to CCK application was characterized by low mean of max cross-correlation coefficient values (0.43 ± 0.05; Figure 4B; Figure 4—figure supplement 1B).
Adult fish were euthanized using ice-cold water and decapitated. The head was transferred to ice-cold ACSF (124 mM NaCl, 3 mM KCl, 2 mM CaCl2, 2 mM MgSO4, 1.25 mM NaH2PO4, 26 mM NaHCO3, and 10 mM glucose (pH 7.2)) perfused with 5% CO2 and 95% O2. The heads were further dissected under a stereomicroscope. The ventral side of the head, including the jaw, gills, and mucus, was removed using fine forceps and microscissors, the optic nerves were cut and the eyes were removed. Next, the bone at the base of the skull that covers the pituitary (sella turcica) was removed using fine forceps. The head was placed in a dedicated chamber (Figure 3B) and stabilized with a slice anchor. […]
as §3, with “2019]). […]” for “2019]).”

Another assay has as its system LH cells. As to the kind of experiment: Ex vivo calcium imaging (RCaMP2), LH cells. The assay is classed as cell-based, zebrafish. The protocol: as §4, §5
Adult fish were euthanized using ice-cold water and decapitated. The head was transferred to ice-cold ACSF (124 mM NaCl, 3 mM KCl, 2 mM CaCl2, 2 mM MgSO4, 1.25 mM NaH2PO4, 26 mM NaHCO3, and 10 mM glucose (pH 7.2)) perfused with 5% CO2 and 95% O2. The heads were further dissected under a stereomicroscope. The ventral side of the head, including the jaw, gills, and mucus, was removed using fine forceps and microscissors, the optic nerves were cut and the eyes were removed. Next, the bone at the base of the skull that covers the pituitary (sella turcica) was removed using fine forceps. The head was placed in a dedicated chamber (Figure 3B) and stabilized with a slice anchor. The chamber had one inlet and one outlet, allowing for a constant flow of ACSF at a rate of 1 ml/min, and an additional inlet that was placed in proximity to the tissue for injections of stimuli. The total volume of ACSF in the chamber was 3 ml.
Imaging was performed in an inverted confocal fluorescent microscope (Leica SP8). R-CaMP2 activity was imaged at 4–10 Hz using the resonant scanner. The laser wavelength was 540 nm and the emission band was 630 nm. Images were taken using the 20x objective. Each imaging session lasted 10 min. Before and after each session, the tissue was imaged once for GFP (excitation, 488 nm, and emission, 530 nm) and R-CaMP2 (540 nm and 590 nm) in two separate channels. Images were processed using the Fiji program ([Schindelin et al., 2012]) for resolution using the Gaussian Blur filter and motion correction using the moco plugin ([Dubbs et al., 2016]).
To measure hormone secretion in response to salmon GnRH analogue (D-Ala6,Pro9-Net)-mammalian GnRH (Bachem Inc, Torrance, CA) or zebrafish CCK [D-Y-[SO3H]-L-G-W-M-D-F, synthesized by GL Biochem] stimulation, the medium was collected through the chamber outlet during the entire imaging session (10 ml per session in total). Each pituitary was imaged three times for 10 min: before, during, and after stimulation. The stimulus was applied manually as a pulse of 300 μl of […] (78.74 µM) peptide during the first 30 s of the imaging session. Hormones were measured in the fractions before and after stimulation using ELISA developed for common carp, which was established in the Levavi-Sivan lab using recombinant carp gonadotropins produced in yeast, and had been previously shown to be suitable for zebrafish ([Whitlock et al., 2019]).
Tissue viability was validated by monitoring the morphology and activity of the cells, looking at granulation and calcium changes. This specific preparation was also viable 2 hr after dissection, when all the cells responded to the different stimuli.
A composite of GFP-positive and RCaMP-positive cells was created to distinguish between LH and FSH cells. […]

The subject of another assay is FSH secretion. As to the kind of experiment: Ex vivo FSH secretion into perfused medium, ELISA. The assay is classed as cell-based, zebrafish. To be noted: GnRH pulse 300 μl of 30 μg/μl (78.74 µM), n=5, paired t-test.
Text: as §1, §2, §3

Assay [3] concerns LH expression in the pituitary. As to the kind of experiment: In vivo injection: LH expression in pituitary (real-time PCR). Also noted: species or system zebrafish. To be noted: intraperitoneal, 100 ng/g body weight, 2 hr, n=10. The procedure: (§6) Six-month-old zebrafish (five males and five females) were injected intraperitoneally with the following: (1) fish CCK peptide [(D-Y[SO3H]-L-G-W-M-D-F-NH (2), synthesized by GL Biochem] at a concentration of 10 ng/g or 100 ng/g body weight, 2) salmon GnRH analogue (D-Ala6,Pro9-Net)-mammalian GnRH (Bachem Inc, Torrance, CA) at a concentration of 100 ng/g body weight, (3) similar volumes of saline. Two hours post-injection, the fish were sedated using MS-222, bled from the heart as previously described ([Biran et al., 2012]), and decapitated. Pituitaries were dissected under a stereomicroscope and placed in Total RNA Isolation Reagent (Trizol). From each fish, between 15 μl and 20 μl of blood was collected. The blood was centrifuged at 970 × g 30 min and the plasma was separated and stored at −20 °C. LH and FSH expression in the pituitary was measured using real-time PCR (see Figure 5—source data 1 for primer list). RNA extraction, reverse transcription of RNA, and real-time PCR were carried out as previously described ([Biran et al., 2008]). FSH secretion was measured in the plasma using ELISA for common carp, which was established in the Levavi Sivan lab using recombinant carp gonadotropins from in the yeast, and had been previously shown to be suitable for zebrafish ([Hollander-Cohen et al., 2018]).
Background: In qPCR the cycle at which signal appears reflects the starting amount.

The subject of a further assay is FSH plasma levels. Kind of assay: In vivo injection: FSH plasma levels (ELISA). Also noted: species or system zebrafish. The note with it: intraperitoneal, 100 ng/g body weight, 2 hr; n=10; Fig 5C and D. The protocol: as §6

“Also recorded” adds a separate entry of the source.

Regarding (D-Ala6,Pro9-Net)-mammalian GnRH, in the assay with LH secretion, the “LH secretion response to GnRH” value is recorded as “significant rise in LH secretion”. For the same substance, the “binding to fish GnRH receptors” value in assay [1] is listed as “effectively binds to the three types of GnRH receptors that exist in fish”. Besides, the “FSH cells response to GnRH stimuli in pituitary cell culture” value in assay [2] was “lack of FSH cells response to GnRH stimuli in pituitary cell culture”. Moreover, in the assay with FSH cells (GnRH 300 μl, n=10), the “calcium response to GnRH, FSH cells” value is “partial increase in follicle-stimulating hormone (FSH) cells; also recorded: inconsistent response of FSH cells”. In addition, in the assay on FSH cells (GnRH puff 300 μl, coefficient values higher than the 80 percentiles of basal values, same fish, n=10 (3 males, 7 females)), the “percentage of cells responsive to GnRH stimulus, FSH cells” value was found to be 56%. Further, the “fish displaying an increase in cross-correlation values from the basal state, FSH cells” value in the assay on FSH cells (GnRH puff 300 μl, percent of fish, n=10) amounted to 50%. The “calcium transient average half width, LH cells” value in the assay with LH cells (ex vivo brain-pituitary preparation, GnRH puff 78.74 µM, pH 7.2 ACSF, Fig 3-supplement 2: mean of 20 cell traces per fish, 3 females, 3 males) came to 48.6 s. In the assay with LH cells (ex vivo, GnRH 78.74 µM, n=10), the “calcium response to GnRH, LH cells” value was “synchronized increase of calcium in all luteinizing hormone (LH) cells; also recorded: strong and slow calcium rise”. In addition, the “calcium transient average amplitude, LH cells” value in the assay on LH cells (ex vivo, GnRH puff 78.74 µM, Fig 3-supplement 2: mean of 20 cell traces per fish, 3 females, 3 males) is recorded as 1.99 ∆F/F. The “percentage of cells responsive to GnRH stimulus, LH cells” value in the assay with LH cells (ex vivo, GnRH puff 78.74 µM, coefficient values higher than the 80 percentiles of basal values, n=10 (3 males, 7 females), p<0.001 vs FSH cells) is reported as 95%. The “mean of max cross-correlation coefficient of calcium traces, LH cells” value with LH cells (ex vivo, after GnRH puff 78.74 µM, basal 0.26 ± 0.02, n=10 (3 males, 7 females), mean ± SEM, p<0.0001) was found to be 0.66 ± 0.05. In the assay with FSH secretion, the “FSH secretion response to GnRH” value is “not significant from the basal secretion”. The “LH expression in the pituitary after GnRH injection” value in assay [3] is given as “only affected LH expression in the pituitary; also recorded: Expression level increased significantly only in response to GnRH injection”. Also, the “FSH expression and secretion response to GnRH injection” value in the assay on FSH plasma levels was “did not reach statistical significance”.
